Experimental data taken from patent publication US12371454B2, “Cyclic peptide compound having Kras inhibitory action” (priority 2019, dated 2025).
Starred links: 1 amine or outer side, 2 acyl side, 3 side chain; linkers in the order of their positions; H or OH if unused. Positions of bridges follow the written chain, without caps; N, C: chain ends. Non-standard residues stand in square brackets, D forms with d. Residues, ends and D or L forms follow the SMILES beside them. *: point of attachment. hPhe(3,5-F2-4-CF3) = N[C@@H](CCc1cc(F)c(C(F)(F)F)c(F)c1)C(=O)O; hPhe(3-Cl-4-CF3) = N[C@@H](CCc1ccc(C(F)(F)F)c(Cl)c1)C(=O)O; NMePhe(4-CF3) = CN[C@@H](Cc1ccc(C(F)(F)F)cc1)C(=O)O; hPhe(4-CF3) = N[C@@H](CCc1ccc(C(F)(F)F)cc1)C(=O)O; ACHC(1R,2R) = O=C([C@@H]1CCCC[C@H]1N[*:1])[*:2]; NMePhe(4-CN) = CN[C@@H](Cc1ccc(C#N)cc1)C(=O)O; NEtPhe(4-Me) = CCN[C@@H](Cc1ccc(C)cc1)C(=O)O; NMePhe(4-Cl) = CN[C@@H](Cc1ccc(Cl)cc1)C(=O)O; hPhe(4-Cl) = N[C@@H](CCc1ccc(Cl)cc1)C(=O)O; NMedβ3hAla = C[C@H](CC(=O)[*:2])N(C)[*:1]; NMeGly(cPent) = CN[C@H](C(=O)O)C1CCCC1; Pro(4,4-F2) = O=C(O)[C@@H]1CC(F)(F)CN1; NMeCha = CN[C@@H](CC1CCCCC1)C(=O)O; NMeGly(cPr) = CN[C@H](C(=O)O)C1CC1; NMeChg = CN[C@H](C(=O)O)C1CCCCC1; NMeI = CC[C@H](C)[C@H](NC)C(=O)O; NMeD = CN[C@@H](CC(=O)O)C(=O)O; NMeL = CN[C@@H](CC(C)C)C(=O)O; NMeV = CN[C@H](C(=O)O)C(C)C; d(β3hA) = C[C@@H](N)CC(=O)O; NMeA = CN[C@@H](C)C(=O)O; Piperidide = C1CCN(*)CC1; Ac5c = NC1(C(=O)O)CCCC1; Aze = O=C(O)[C@@H]1CCN1; Ac4c = NC1(C(=O)O)CCC1; Sar = CNCC(=O)O

What follows are molecules tested against T1, Kras and SOS1 (biotin-tagged human Kras loaded with GDP, His-tagged human SOS1) (Homo sapiens, UniProt P01116, G12D) (assay: Protein-protein interaction inhibition between Kras and SOS1 (KrasGl2D-SOS PPI) using AlphaScreen). Settings: AlphaScreen; biotin-tagged human Kras loaded with GDP, His-tagged human SOS1; read-out: KRAS G12D-SOS PPI IC50.
T1 construct: made in house; host or cells: E. coli (stated for Kras only)
T1 sequence (P01116 1-188 isoform P01116-2 G12D): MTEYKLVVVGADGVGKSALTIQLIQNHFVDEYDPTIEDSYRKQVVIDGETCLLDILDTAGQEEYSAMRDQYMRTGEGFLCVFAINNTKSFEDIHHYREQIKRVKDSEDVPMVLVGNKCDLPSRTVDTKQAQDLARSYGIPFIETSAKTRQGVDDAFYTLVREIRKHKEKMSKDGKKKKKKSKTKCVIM
Format: binding
How it was run: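 Kras was produced in E. coli, purified, then loaded with GDP. It was paired via streptavidin acceptor beads with His-SOS1 held on nickel donor beads, and proximity signal at 520-620 nm was read after 680 nm illumination.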
With `CC[C@H](C)[C@@H]1NC(=O)[C@H](CC(C)C)N(C)C(=O)C[C@@H](C)NC(=O)[C@H](C(C)C)N(C)C(=O)C2(CCCC2)NC(=O)[C@@H]2CCCN2C(=O)[C@H](CCc2ccc(C(F)(F)F)c(Cl)c2)NC(=O)CN(C)C(=O)[C@H](Cc2ccc(C#N)cc2)N(C)C(=O)CN(C)C(=O)CN(C)C1=O` [Compound 564] (cyclo([Ac5c][NMeV][d(β3hA)][NMeL]I[Sar][Sar][NMePhe(4-CN)][Sar][hPhe(3-Cl-4-CF3)]P)) the IC50 was 9.6 nM.
`CC[C@H](C)[C@@H]1NC(=O)[C@H](C2CC2)N(C)C(=O)C[C@@H](C)NC(=O)[C@H](C(C)C)N(C)C(=O)C2(CCCC2)NC(=O)[C@@H]2CCCN2C(=O)[C@H](CCc2ccc(C(F)(F)F)c(Cl)c2)NC(=O)CN(C)C(=O)[C@H](CC2CCCCC2)N(C)C(=O)[C@@H]2CCN2C(=O)[C@H](C)N(C)C1=O` [Compound 565] (cyclo([Ac5c][NMeV][d(β3hA)][NMeGly(cPr)]I[NMeA][Aze][NMeCha][Sar][hPhe(3-Cl-4-CF3)]P)) gave an IC50 of 55 nM.
`CC[C@H](C)[C@@H]1NC(=O)[C@H](CC(C)C)NC(=O)[C@@H]2CCCC[C@H]2NC(=O)[C@H](C(C)C)N(C)C(=O)C2(CCCC2)NC(=O)[C@@H]2CCCN2C(=O)[C@H](CCc2ccc(C(F)(F)F)c(Cl)c2)NC(=O)CN(C)C(=O)[C@H](CC2CCCCC2)N(C)C(=O)CN(C)C(=O)CN(C)C1=O` [Compound 569] (cyclo([Ac5c][NMeV][ACHC(1R,2R)]LI[Sar][Sar][NMeCha][Sar][hPhe(3-Cl-4-CF3)]P)) showed an IC50 of 73 nM.
Work on `CC[C@H](C)[C@@H]1NC(=O)[C@H](C2CCCC2)N(C)C(=O)C[C@@H](C)NC(=O)[C@H](C(C)C)N(C)C(=O)C2(CCCC2)NC(=O)[C@@H]2CCCN2C(=O)[C@H](CCc2ccc(C(F)(F)F)c(Cl)c2)NC(=O)CN(C)C(=O)[C@H](CC2CCCCC2)N(C)C(=O)[C@@H]2CCN2C(=O)[C@H](C)N(C)C1=O` [Compound 570] (cyclo([Ac5c][NMeV][d(β3hA)][NMeGly(cPent)]I[NMeA][Aze][NMeCha][Sar][hPhe(3-Cl-4-CF3)]P)) yielded an IC50 of 27 nM.
`CC[C@H](C)[C@@H]1NC(=O)[C@H](CC(C)C)N(C)C(=O)C[C@@H](C(=O)N(C)C)N(C)C(=O)[C@H]([C@@H](C)CC)N(C)C(=O)C2(CCCC2)NC(=O)[C@@H]2CCCN2C(=O)[C@H](CCc2cc(F)c(C(F)(F)F)c(F)c2)NC(=O)CN(C)C(=O)[C@H](Cc2ccc(C)cc2)N(CC)C(=O)[C@@H]2CCN2C(=O)[C@H](C)N(C)C1=O` [Compound 571] ([NMeL]I[NMeA][Aze][NEtPhe(4-Me)][Sar][hPhe(3,5-F2-4-CF3)]P[Ac5c][NMeI][NMeD]-NMe2; lactam N-11) showed an IC50 of 0.83 nM.
Molecule `CC[C@H](C)[C@@H]1NC(=O)[C@H](CC(C)C)N(C)C(=O)C[C@@H](C)NC(=O)[C@H](C(C)C)N(C)C(=O)C2(CCCC2)NC(=O)[C@@H]2CCCN2C(=O)[C@H](CCc2ccc(Cl)cc2)NC(=O)CN(C)C(=O)[C@H](CC2CCCCC2)N(C)C(=O)CN(C)C(=O)CN(C)C1=O` [Compound 576] (cyclo([Ac5c][NMeV][d(β3hA)][NMeL]I[Sar][Sar][NMeCha][Sar][hPhe(4-Cl)]P)) has an IC50 of 230 nM.
Work on `CC[C@H](C)[C@@H]1NC(=O)[C@H](CC(C)C)N(C)C(=O)C[C@@H](C(=O)N2CCCCC2)N(C)C(=O)[C@H](CC2CCCCC2)N(C)C(=O)C2(CCCC2)NC(=O)[C@@H]2CCCN2C(=O)[C@H](CCc2ccc(C(F)(F)F)c(Cl)c2)NC(=O)CN(C)C(=O)[C@H](CC2CCCCC2)N(C)C(=O)CN(C)C(=O)CN(C)C1=O` [Compound 577] ([NMeL]I[Sar][Sar][NMeCha][Sar][hPhe(3-Cl-4-CF3)]P[Ac5c][NMeCha][NMeD]-Piperidide; lactam N-11) yielded an IC50 of 21 nM.
`CC[C@H](C)[C@@H]1NC(=O)[C@H](CC2CCCCC2)N(C)C(=O)C[C@@H](C)NC(=O)[C@H](CC(C)C)N(C)C(=O)C2(CCCC2)NC(=O)[C@@H]2CCCN2C(=O)[C@H](CCc2ccc(C(F)(F)F)cc2)NC(=O)CN(C)C(=O)[C@H](Cc2ccc(Cl)cc2)N(C)C(=O)CN(C)C(=O)CN(C)C1=O` [Compound 578] (cyclo([Ac5c][NMeL][d(β3hA)][NMeCha]I[Sar][Sar][NMePhe(4-Cl)][Sar][hPhe(4-CF3)]P)) gave an IC50 of 120 nM.
For `CC[C@H](C)[C@@H]1NC(=O)[C@H](CC(C)C)N(C)C(=O)C[C@@H](C)N(C)C(=O)[C@H](C2CCCCC2)N(C)C(=O)C2(CCC2)NC(=O)[C@@H]2CC(F)(F)CN2C(=O)[C@H](CCc2cc(F)c(C(F)(F)F)c(F)c2)NC(=O)CN(C)C(=O)[C@H](Cc2ccc(C(F)(F)F)cc2)N(C)C(=O)CN(C)C(=O)CN(C)C1=O` [Compound 579] (cyclo([Ac4c][NMeChg][NMedβ3hAla][NMeL]I[Sar][Sar][NMePhe(4-CF3)][Sar][hPhe(3,5-F2-4-CF3)][Pro(4,4-F2)])), the IC50 was 17 nM.
